Drawing on patent US10071967B2, “N-cycloalkyl-N-{[2-(1-substitutedcycloalkyl)phenyl]methylene}-(thio)carboxamide derivatives” (BAYER CROPSCIENCE AKTIENGESELLSCHAFT, priority 2013, dated 2018), this text covers logP for 69 compounds.

This data set is described as follows: log P by HPLC on a reversed-phase column (C 18), EEC Directive 79/831 Annex V.A8. The data set is classed as physicochemical. The settings on record: 0.1% aqueous formic acid and acetonitrile. On the procedure:
In table 1, the log P values were determined in accordance with EEC Directive 79/831 Annex V.A8 by HPLC (High Performance Liquid Chromatography) on a reversed-phase column (C 18), using the method described below: Temperature: 40° C.; Mobile phases: 0.1% aqueous formic acid and acetonitrile; linear gradient from 10% acetonitrile to 90% acetonitrile. Calibration was carried out using unbranched alkan-2-ones (comprising 3 to 16 carbon atoms) with known log P values (determination of the log P values by the retention times using linear interpolation between two successive alkanones). lambda-max-values were determined using UV-spectra from 200 nm to 400 nm and the peak values of the chromatographic signals.

Where [1] appears, read: Table 4, compounds of formula (IV), HPLC C 18, 40° C.
[2] abbreviates: HPLC, reversed-phase column (C 18), 40° C., linear gradient 10% to 90% acetonitrile.

What is called logP is the decadic logarithm of the partition coefficient of the neutral form, usually between octanol and water. The compound “1-(2-formyl-4-methylphenyl)cyclopropanecarbonitrile [IV.16]” had a logP under setting [1] of 2.08.

With “3-fluoro-2-(1-methylcyclopropyl)benzaldehyde [IV.14]”, the logP under setting [1] was found to be 3.13.

`Cn1cc(C(=O)N(Cc2cccc3c2C2(CCC3)CC2(Cl)Cl)C2CC2)c(C(F)F)n1` (racemic) [Ia.04] yielded a logP (Table 2, compounds of formula (I), HPLC C 18, 40° C.) of 4.06.

For `Cn1cc(C(=O)N(Cc2cccc(Cl)c2C2(C)CC2)C2CC2)c(C(F)F)n1` [Example 1.001], under setting [2], the lipophilicity (logP) came out at 3.89.

Take `Cc1cc(C(=O)N(Cc2cccc(Cl)c2C2(C)CC2)C2CC2)c(C)o1` [Example 1.002]: the log partition coefficient (logP) under setting [2] is listed as 4.92.

Regarding `Cn1cc(C(=O)N(Cc2cccc(F)c2C2(C)CC2)C2CC2)c(C(F)F)n1` [Example 1.003], under setting [2], the logP turned out to be 3.46.

Take `Cc1nn(C)cc1C(=O)N(Cc1cccc(F)c1C1(C)CC1)C1CC1` [Example 1.004]: the logP under setting [2] worked out at 2.98.

Turning to `Cc1nn(C)cc1C(=S)N(Cc1cccc(F)c1C1(C)CC1)C1CC1` [Example 1.005], the logP under setting [2] is on record as 3.64.

Compound `Cn1cc(C(=S)N(Cc2cccc(F)c2C2(C)CC2)C2CC2)c(C(F)F)n1` [Example 1.006] yielded a logP under setting [2] of 4.04.

`Cc1cc(C(=O)N(Cc2ccc(Cl)cc2C2(C)CC2)C2CC2)c(C)o1` [Example 1.007] registered a lipophilicity (logP) under setting [2] of 4.98.

For `Cc1cc(C(=O)N(Cc2ccc(Cl)cc2C2(C)CC2)C2CC2)c(C(F)F)o1` [Example 1.008], the logP under setting [2] came out at 4.98.

Compound `Cn1nc(C(=O)N(Cc2ccc(Cl)cc2C2(C)CC2)C2CC2)c(C(F)F)n1` [Example 1.009] returned a logP under setting [2] of 4.54.

Compound `Cn1cc(C(=O)N(Cc2ccc(Cl)cc2C2(C)CC2)C2CC2)c(C(F)F)n1` [Example 1.010] had a logP under setting [2] of 3.96.

`Cn1nc(C(=S)N(Cc2ccc(Cl)cc2C2(C)CC2)C2CC2)c(C(F)F)n1` [Example 1.011]: the logP under setting [2] came out at 5.11.

The compound `Cc1cc(C(=S)N(Cc2ccc(Cl)cc2C2(C)CC2)C2CC2)c(C)o1` [Example 1.012] returned a logP under setting [2] of 5.65.

With `Cn1cc(C(=O)N(Cc2ccc(F)cc2C2(C)CC2)C2CC2)c(C(F)F)n1` [Example 1.013], the lipophilicity (logP) under setting [2] came to 3.52.

Consider `Cc1nn(C)c(F)c1C(=O)N(Cc1ccc(F)cc1C1(C)CC1)C1CC1` [Example 1.014], for which the logP under setting [2] turned out to be 3.46.

Turning to `Cc1nn(C)c(F)c1C(=S)N(Cc1ccc(F)cc1C1(C)CC1)C1CC1` [Example 1.015], under setting [2], the logP is on record as 4.18.

Regarding `Cc1ccc(CN(C(=O)c2c(C)nn(C)c2F)C2CC2)c(C2(C)CC2)c1` [Example 1.016], under setting [2], the logP came to 3.71.

For `COc1ccc(CN(C(=O)c2cn(C)nc2C(F)F)C2CC2)c(C2(C)CC2)c1` [Example 1.017], under setting [2], the log partition coefficient (logP) was 3.31.

The compound `COc1ccc(CN(C(=O)c2c(C)nn(C)c2F)C2CC2)c(C2(C)CC2)c1` [Example 1.018] displayed a logP under setting [2] of 3.23.

The compound `Cn1cc(C(=O)N(Cc2cc(F)c(F)cc2C2(C)CC2)C2CC2)c(C(F)F)n1` [Example 1.019] returned a logP under setting [2] of 3.68.

In the case of `COc1cc(CN(C(=O)c2cn(C)nc2C(F)F)C2CC2)c(C2(C)CC2)cc1OC` [Example 1.020], the logP under setting [2] came out at 2.98.

`Cc1cc(C(=O)N(Cc2ccc(-c3ccccc3)cc2C2(C)CC2)C2CC2)c(C)o1` [Example 1.021] gave a logP under setting [2] of 5.48.

In turn, `Cn1nc(C(=O)N(Cc2ccc(-c3ccccc3)cc2C2(C)CC2)C2CC2)c(C(F)F)n1` [Example 1.022] yielded a logP under setting [2] of 5.00.

`Cc1nn(C)c(Cl)c1C(=O)N(Cc1cc(Br)ccc1C1(C)CC1)C1CC1` [Example 1.023] had a logP under setting [2] of 4.24.

For the compound `Cn1cc(C(=O)N(Cc2cc(Br)ccc2C2(C)CC2)C2CC2)c(C(F)F)n1` [Example 1.024], the logP under setting [2] is given as 3.94.

In the case of `Cn1cc(C(F)F)c(C(=O)N(Cc2cc(Br)ccc2C2(C)CC2)C2CC2)n1` [Example 1.025], the logP under setting [2] was 4.39.

Under setting [2], `Cc1nn(C)cc1C(=O)N(Cc1cc(Br)ccc1C1(C)CC1)C1CC1` [Example 1.026] showed a logP of 3.44.

`Cc1nn(C)c(F)c1C(=O)N(Cc1cc(Br)ccc1C1(C)CC1)C1CC1` [Example 1.027] showed a logP under setting [2] of 3.99.

For the compound `Cc1cc(C(=O)N(Cc2cc(Br)ccc2C2(C)CC2)C2CC2)c(C)o1` [Example 1.028], the logP under setting [2] stood at 5.08.

`Cn1cc(C(=O)N(Cc2cc(Cl)ccc2C2(C)CC2)C2CC2)c(C(F)F)n1` [Example 1.029]: the lipophilicity (logP) under setting [2] was 3.83.

Compound `Cc1c(C(=O)N(Cc2cc(Cl)ccc2C2(C)CC2)C2CC2)c(C(F)F)nn1C` [Example 1.030] yielded a lipophilicity (logP) under setting [2] of 4.06.

Under setting [2], `Cn1cc(C(=S)N(Cc2cc(Cl)ccc2C2(C)CC2)C2CC2)c(C(F)F)n1` [Example 1.031] displayed a logP of 4.37.

Under setting [2], `Cn1cc(C(=O)N(Cc2cc(F)ccc2C2(C)CC2)C2CC2)c(C(F)F)n1` [Example 1.032] gave a logP of 3.51.

Regarding `Cc1ccc(C2(C)CC2)c(CN(C(=O)c2sccc2I)C2CC2)c1` [Example 1.034], under setting [2], the lipophilicity (logP) is listed as 5.14.

`Cc1ccc(C2(C)CC2)c(CN(C(=O)c2c(C(F)F)nn(C)c2C(F)F)C2CC2)c1` [Example 1.035]: the logP under setting [2] was 4.36.

Turning to `Cc1ccc(C2(C)CC2)c(CN(C(=O)c2c(C(F)F)nn(C)c2C)C2CC2)c1` [Example 1.036], the lipophilicity (logP) under setting [2] is given as 3.99.

`Cc1ccc(C2(C)CC2)c(CN(C(=O)c2cn(C)nc2C(F)(F)F)C2CC2)c1` [Example 1.037] displayed a lipophilicity (logP) under setting [2] of 4.16.

The compound `Cc1ccc(C2(C)CC2)c(CN(C(=O)c2c(C(F)(F)F)nn(C)c2F)C2CC2)c1` [Example 1.038] displayed a logP under setting [2] of 4.61.

As to `Cc1ccc(C2(C)CC2)c(CN(C(=O)c2c(C(F)F)nn(C(C)(C)C)c2C(F)F)C2CC2)c1` [Example 1.039], the logP under setting [2] was determined as 5.35.

Take `Cc1ccc(C2(C)CC2)c(CN(C(=O)c2c(C)nn(C)c2F)C2CC2)c1` [Example 1.040]: the lipophilicity (logP) under setting [2] was determined as 3.73.

For `Cc1ccc(C2(C)CC2)c(CN(C(=O)c2c(C(F)(F)F)nn(C)c2Cl)C2CC2)c1` [Example 1.041], the logP under setting [2] is recorded as 4.82.

As for `Cc1ccc(C2(C)CC2)c(CN(C(=O)c2cc(C)oc2C(F)F)C2CC2)c1` [Example 1.042], the logP under setting [2] amounted to 4.62.

Compound `Cc1ccc(C2(C)CC2)c(CN(C(=O)c2ccoc2C(F)F)C2CC2)c1` [Example 1.043] returned a logP under setting [2] of 4.35.

As to `Cc1ccc(C2(C)CC2)c(CN(C(=O)c2nc(C)oc2C(F)F)C2CC2)c1` [Example 1.044], under setting [2], the logP turned out to be 4.56.

With `Cc1ccc(C2(C)CC2)c(CN(C(=O)c2cc(C3CC3)oc2C)C2CC2)c1` [Example 1.045], the logP under setting [2] is 5.22.

In the case of `Cc1ccc(C2(C)CC2)c(CN(C(=O)c2oc(C)nc2C(F)F)C2CC2)c1` [Example 1.046], under setting [2], the logP worked out at 4.39.

As for `Cc1ccc(C2(C)CC2)c(CN(C(=O)c2cc(C)oc2C)C2CC2)c1` [Example 1.047], the log partition coefficient (logP) under setting [2] is 4.85.

As for `Cc1ccc(C2(C)CC2)c(CN(C(=O)c2c(C)nn(C)c2Cl)C2CC2)c1` [Example 1.048], the lipophilicity (logP) under setting [2] amounted to 3.96.

In turn, `C=Cc1cc(C(=O)N(Cc2cc(C)ccc2C2(C)CC2)C2CC2)c(C)o1` [Example 1.049] registered a logP under setting [2] of 5.00.

`Cc1ccc(C2(C)CC2)c(CN(C(=O)c2nn(C)nc2C(F)F)C2CC2)c1` [Example 1.050] gave a log partition coefficient (logP) under setting [2] of 4.37.

Consider `CCc1cc(C(=O)N(Cc2cc(C)ccc2C2(C)CC2)C2CC2)c(C)o1` [Example 1.051], for which the logP under setting [2] is reported as 5.25.

As to `Cc1ccc(C2(C)CC2)c(CN(C(=S)c2cn(C)nc2C(F)F)C2CC2)c1` [Example 1.052], the lipophilicity (logP) under setting [2] came to 4.39.

For `Cc1ccc(C2(C)CC2)c(CN(C(=S)c2oc(C)nc2C(F)F)C2CC2)c1` [Example 1.053], the logP under setting [2] came out at 4.92.

In turn, `Cc1ccc(C2(C)CC2)c(CN(C(=S)c2sccc2I)C2CC2)c1` [Example 1.054] displayed a logP under setting [2] of 5.72.

The compound `Cc1cc(C(=O)N(Cc2c(C3(C)CC3)ccc(C)c2F)C2CC2)c(C)o1` [Example 1.055] registered a logP under setting [2] of 5.08.

`Cc1nn(C)c(F)c1C(=O)N(Cc1ccc2c(c1C1(C)CC1)OCO2)C1CC1` [Example 1.056] showed a log partition coefficient (logP) under setting [2] of 3.06.

The compound `C#CC1(c2ccc(Cl)cc2CN(C(=O)c2cn(C)nc2C(F)F)C2CC2)CC1` [Example 1.063] yielded a logP under setting [2] of 3.39.

On to `C#CC1(c2ccc(C)cc2CN(C(=O)c2cn(C)nc2C(F)F)C2CC2)CC1` [Example 1.064], for which the lipophilicity (logP) under setting [2] was 3.31.

`C#CC1(c2ccc(C)cc2CN(C(=O)c2c(C)nn(C)c2F)C2CC2)CC1` [Example 1.065] yielded a logP under setting [2] of 3.21.

As to `C#CC1(c2ccc(C)cc2CN(C(=S)c2c(C)nn(C)c2F)C2CC2)CC1` [Example 1.066], the lipophilicity (logP) under setting [2] is on record as 4.54.

In turn, `CCC1(c2ccccc2CN(C(=O)c2cn(C)nc2C(F)F)C2CC2)CC1` [Example 1.067] yielded a lipophilicity (logP) under setting [2] of 3.79.

Under setting [2], `CCC1(c2ccccc2CN(C(=S)c2cn(C)nc2C(F)F)C2CC2)CC1` [Example 1.068] gave a logP of 4.37.

Under setting [2], `CCC1(c2cc(Cl)ccc2CN(C(=O)c2c(C)nn(C)c2F)C2CC2)CC1` [Example 1.069] had a logP of 4.25.

For `CCC1(c2cc(Cl)ccc2CN(C(=O)c2cn(C)nc2C(F)F)C2CC2)CC1` [Example 1.070], the logP under setting [2] came out at 4.25.

Turning to `CCC1(c2cc(Cl)ccc2CN(C(=O)c2cc(C)oc2C)C2CC2)CC1` [Example 1.071], under setting [2], the logP is 5.34.

For `CCC1(c2cc(Cl)ccc2CN(C(=O)c2cc(C)oc2C(F)F)C2CC2)CC1` [Example 1.072], the lipophilicity (logP) under setting [2] was 5.28.

In turn, `CCC1(c2cc(Cl)ccc2CN(C(=O)c2nn(C)nc2C(F)F)C2CC2)CC1` [Example 1.073] displayed a logP under setting [2] of 4.87.
